Experimental findings from patent publication US11998556B2, “Methods of treating parkinson's disease and/or lewy body disease or disorder(s)” (Athira Pharma, Inc., priority 2021, dated 2024) are described below.

The nature of series [1]: Conversion of prodrug ATH-1017 to active drug ATH-1001 in the plasma after SC injection. Type of series: in vivo. From the text: ATH-1017 is an experimental treatment for Lewy body disease or disorder(s) (LBD), including Parkinson's disease dementia (PDD) and/or dementia with Lewy bodies (DLB), formulated as a sterile solution for subcutaneous (SC) injection. […] ATH-1017 was developed as a water-soluble prodrug of ATH-1001 to allow SC dosing in aqueous vehicles. The active drug ATH-1001 acts as an agonist of the hepatocyte growth factor (HGF) receptor and its tyrosine kinase, MET in the brain. The HGF/MET system presents a new therapeutic target to treat neurodegeneration and restore cognitive, behavioral, functional and motor capacities in LBD such as PDD.

Series [2] in a line: Phase 2 randomized, double-blind, placebo-controlled study in subjects with PDD inclusive of probable DLB. The series is classed as in vivo, human. The following applies: 40 mg/day or 70 mg/day SC OD, 26 weeks.
Description: The study is conducted at a total of approximately 15 centers in the USA and optionally Canada. Subjects and their caregivers are required to sign an informed consent form (ICF) and are evaluated against the inclusion/exclusion criteria during a screening period; all eligible subjects will have the option to be tested for glucocerebrosidase (GBA) genotype. Subjects who meet all inclusion/exclusion criteria will undergo baseline ERP P300 assessments at 2 separate baseline visits. At the first baseline assessment (Visit 2a, Pre-baseline, Day-10 to Day-3), ERP P300 is uploaded for quality check immediately after completion of the visit. […] At this Baseline visit (Visit 2b), subjects undergo pre-dose baseline and post-dose ERP P300. […] The first SC injection of study drug is performed on site under supervision. The subject should withhold study drug administration on the day of subsequent clinic visits; study drug administration is done on site under supervision of site staff at these visits. […] During the double-blind treatment period, clinic visits take place on Day 1 and thereafter at Weeks 2, 6, 12, 16, 20, and 26, with a safety follow-up visit scheduled 4 weeks after completion of the double-blind period at Week 30. On Day 1, after completion of the first dose, subjects remain on-site 2 hours for post-treatment clinical observation. […]
Series [3] in a line: Nonclinical studies (hepatotoxicity risk). The series is classed as in vivo.
Series [4] can be described thus: Clinical studies of ATH-1017: safety and tolerability of single and multiple SC administration. Type of series: in vivo, human.

Square brackets hold non-standard residues; d marks the D form. Peptide text beside a SMILES is read from it. * marks the point of attachment. pY = N[CH](Cc1ccc(OP(=O)(O)O)cc1)C(=O)O; Hexanoyl = CCCCCC(=O)*; Ahx = NCCCCCC(=O)O

As for `CCCCCC(=O)NC(Cc1ccc(OP(=O)(O)O)cc1)C(=O)NC(C(=O)NCCCCCC(N)=O)C(C)CC` (stereo not shown) [ATH-1017] (Hexanoyl-[pY]-Ile-[Ahx]-NH2; configuration not given here), the “conversion of prodrug to active drug ATH-1001” value in series [1] is recorded as “rapidly converted”. The safety and tolerability entry was “acceptable safety and tolerability” in series [2]; “safe and well tolerated” in series [4] (40 mg SC, OD, over 9 consecutive days, AD subjects); “safe and well tolerated” in series [4] (multiple administration of 20, 40, 60 and 80 mg SC, OD, over 9 consecutive days, healthy elderly subjects); “safe and well tolerated” in series [4] (single SC administration of 2, 6, 20, 40, 60 and 90 mg, healthy young subjects). For the same compound, the “primary, secondary or exploratory endpoints (GST, ADAS-Cog13, ERP P300 latency etc.)” value in series [2] (versus placebo) is “achieves one or more of the primary, secondary, or exploratory endpoints”. Moreover, the hepatotoxicity risk result in series [3] was “potential risk for hepatotoxicity identified”. Moreover, the “injection site reactions (pain, pruritus, erythema): severity” value in series [4] (SC injection, human clinical studies, resolved without specific therapy) was “mild in nature”. Besides, the hepatotoxicity result in series [4] (human studies) is given as “has not been observed”. Also, the CNS-specific adverse events entry in series [4] (humans, to date) is listed as “no CNS-specific adverse events have been observed”.
